The test system of one series is Escherichia coli. The series can be described thus: Antibacterial activity against Escherichia coli ATCC 25922 assessed as growth inhibition incubated for 18 to 24 hrs by broth microdilution based antibiotic susceptibility testing method. The class given is functional.
A further series deals with Acinetobacter baumannii. Kind of series: Antibacterial activity against Acinetobacter baumannii BAA-1605 assessed as growth inhibition incubated for 18 to 24 hrs by broth microdilution based antibiotic susceptibility testing method. The class given is functional.
Series [1] has as its system Mycobacterium tuberculosis. Kind of series: Antitubercular activity against Mycobacterium tuberculosis H37Rv ATCC 27294 assessed as bacterial growth inhibition incubated for 5 days by standard microdilution method. The note with it: H37Rv ATCC 27294, 120 h. Type of series: functional.
A further series deals with B16-F10. The series can be described thus: Cytotoxicity against mouse B16F10 cells assessed as cell viability at 10 uM incubated for 24 hrs by MTT assay. The conditions noted are these: b16-f10, 24 h. The class given is cell-based.
The test system of series [2] is Mycobacterium tuberculosis. The series can be described thus: Antitubercular activity against replicating Mycobacterium tuberculosis H37Rv assessed as growth inhibition measured after 7 days incubation by microplate alamar blue assay. Type of series: functional. The note with it: 168 h.
Series [3] relates to CHO-K1. The series can be described thus: Cytotoxicity against CHOK1 cells assessed as cell viability at 8 ug/ml incubated for 24 hrs by MTT assay. Type of series: cell-based, Cricetulus griseus. The conditions noted are these: chinese hamster, cho-k1, 24 h.
The subject of series [4] is Mycolicibacterium fortuitum. Kind of series: Antimycobacterial activity against Mycobacterium fortuitum assessed as growth inhibition. The class given is functional, organism-based.
Series [5] concerns Mycobacteroides abscessus. Kind of series: Antimycobacterial activity against Mycobacterium abscessus assessed as growth inhibition. The class given is functional, organism-based.
Series [6] can be described thus: Selectivity index, ratio of IC50 for CHOK1 cells to MIC for Mycobacterium tuberculosis H37Rv. The conditions noted are these: hamster, CHO-K1 cells; read-out: Selectivity Index. The class given is toxicity.
The next series relates to Staphylococcus aureus. Kind of series: Antibacterial activity against Staphylococcus aureus ATCC 29213 assessed as growth inhibition incubated for 18 to 24 hrs by broth microdilution based antibiotic susceptibility testing method. Type of series: functional.
The next series relates to Pseudomonas aeruginosa. Kind of series: Antibacterial activity against Pseudomonas aeruginosa ATCC 27853 assessed as growth inhibition incubated for 18 to 24 hrs by broth microdilution based antibiotic susceptibility testing method. Type of series: functional.
A further series relates to Mycobacteroides chelonae. The series can be described thus: Antimycobacterial activity against Mycobacterium chelonae assessed as growth inhibition. Type of series: functional, organism-based.
In series [7] the test system is CHO-K1. Kind of series: Cytotoxicity against CHOK1 cells assessed as reduction in cell viability incubated for 24 hrs by MTT assay. The class given is cell-based. The note with it: Cricetulus griseus, CHO-K1, 24 h.
The test system of series [8] is Mycobacterium tuberculosis. Kind of series: Antimycobacterial activity against dormant stage of Mycobacterium tuberculosis H37Ra ATCC 25177 assessed as growth inhibition at 10 uM incubated for 12 days by XRMA method relative to control. The class given is functional. The conditions noted are these: H37Ra ATCC 25177, 288 h.
In the next series the test system is MCF7. The series can be described thus: Cytotoxicity against human MCF7 cells assessed as cell viability at 10 uM incubated for 24 hrs by MTT assay. The class given is cell-based. The conditions noted are these: mcf7, 24 h.
A further series concerns Klebsiella pneumoniae. The series can be described thus: Antibacterial activity against Klebsiella pneumoniae BAA-1705 assessed as growth inhibition incubated for 18 to 24 hrs by broth microdilution based antibiotic susceptibility testing method. The note with it: ATCC BAA-1705. The class given is functional.

The structures appear in SMILES notation. Converted amounts (≈) assume the structure as drawn. The source made the active and inactive calls. The rule behind the calls is not given here.

As for `C[C@H]1COc2c(N3CCN(C)CC3)c(F)cc3c(=O)c(C(=O)O)cn1c23` [LEVOFLOXACIN], the figures for the MIC in the series with Escherichia coli and in the series with Acinetobacter baumannii were under 30 µM and 8 µM (≈ 2.89 µg/mL), respectively.

For `COc1ncnc(Cn2cc(C(=O)NCCO)c3ncc(C)cc32)c1C` [TBA-7371], the MIC in [1] was 0.78 to 3.12 µM (≈ 0.277 to 1.11 µg/mL).

For `CCOC(=O)c1nc(C2CCCCC2)sc1-c1ccc(C#N)cc1`, the Activity result with B16-F10, in the series with CHO-K1 [3] and in the series on MCF7 was “Non-Toxic” throughout. For the same compound, the MIC in the series with Escherichia coli was over 50 µM; in series [2] it was 2.1 µg/mL (≈ 6.17 µM); in the series with Staphylococcus aureus it was 50 µM (≈ 17 µg/mL); in the series on Pseudomonas aeruginosa, over 50 µM; with Klebsiella pneumoniae it was over 50 µM. The inhibition result (in [4]; in series [5]; in the series on Mycobacteroides chelonae) was “inactive” throughout. For the same compound, the selectivity ratio in series [6] came out at 35.8. The IC50 with CHO-K1 [7] amounted to 75.2 µg/mL (≈ 221 µM). For the same compound, the inhibition at 10 µM in series [8] was 90.5%.

Values taken from ChEMBL document CHEMBL4364263, “Synthesis and biological evaluation of 2,4,5-trisubstituted thiazoles as antituberculosis agents effective against drug-resistant tuberculosis” (Eur J Med Chem, 2019).
